Laboratory results taken from ChEMBL document CHEMBL3991601, “The target landscape of clinical kinase drugs” (Science, 2017).
Active and inactive are the calls of the source. For most assays here, no stated cut-off is given here; in the data, actives have a measured Kd and inactives only a lower limit.

What was measured:
[1] = target: T1, Interleukin-1 receptor-associated kinase 3 (Homo sapiens, UniProt Q9Y616)
T1 sequence (Q9Y616 whole entry): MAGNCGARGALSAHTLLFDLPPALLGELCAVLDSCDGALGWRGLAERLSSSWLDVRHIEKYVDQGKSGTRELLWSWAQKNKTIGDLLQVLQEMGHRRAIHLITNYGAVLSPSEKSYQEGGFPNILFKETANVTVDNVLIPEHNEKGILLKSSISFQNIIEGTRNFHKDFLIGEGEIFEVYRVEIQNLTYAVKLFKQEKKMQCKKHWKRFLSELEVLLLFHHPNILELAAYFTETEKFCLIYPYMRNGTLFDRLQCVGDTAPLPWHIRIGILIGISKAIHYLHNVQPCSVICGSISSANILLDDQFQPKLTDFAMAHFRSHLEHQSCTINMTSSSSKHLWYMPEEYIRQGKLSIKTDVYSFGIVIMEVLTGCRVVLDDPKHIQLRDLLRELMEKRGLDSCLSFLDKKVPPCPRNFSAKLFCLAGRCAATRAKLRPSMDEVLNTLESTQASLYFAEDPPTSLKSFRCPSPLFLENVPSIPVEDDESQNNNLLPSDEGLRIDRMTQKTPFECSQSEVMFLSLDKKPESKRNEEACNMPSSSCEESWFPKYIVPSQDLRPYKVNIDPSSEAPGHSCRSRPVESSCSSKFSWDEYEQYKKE

[2] = target: Mitogen-activated protein kinase kinase kinase 1 (Homo sapiens, UniProt Q13233)
Mitogen-activated protein kinase kinase kinase 1, sequence (Q13233 whole entry): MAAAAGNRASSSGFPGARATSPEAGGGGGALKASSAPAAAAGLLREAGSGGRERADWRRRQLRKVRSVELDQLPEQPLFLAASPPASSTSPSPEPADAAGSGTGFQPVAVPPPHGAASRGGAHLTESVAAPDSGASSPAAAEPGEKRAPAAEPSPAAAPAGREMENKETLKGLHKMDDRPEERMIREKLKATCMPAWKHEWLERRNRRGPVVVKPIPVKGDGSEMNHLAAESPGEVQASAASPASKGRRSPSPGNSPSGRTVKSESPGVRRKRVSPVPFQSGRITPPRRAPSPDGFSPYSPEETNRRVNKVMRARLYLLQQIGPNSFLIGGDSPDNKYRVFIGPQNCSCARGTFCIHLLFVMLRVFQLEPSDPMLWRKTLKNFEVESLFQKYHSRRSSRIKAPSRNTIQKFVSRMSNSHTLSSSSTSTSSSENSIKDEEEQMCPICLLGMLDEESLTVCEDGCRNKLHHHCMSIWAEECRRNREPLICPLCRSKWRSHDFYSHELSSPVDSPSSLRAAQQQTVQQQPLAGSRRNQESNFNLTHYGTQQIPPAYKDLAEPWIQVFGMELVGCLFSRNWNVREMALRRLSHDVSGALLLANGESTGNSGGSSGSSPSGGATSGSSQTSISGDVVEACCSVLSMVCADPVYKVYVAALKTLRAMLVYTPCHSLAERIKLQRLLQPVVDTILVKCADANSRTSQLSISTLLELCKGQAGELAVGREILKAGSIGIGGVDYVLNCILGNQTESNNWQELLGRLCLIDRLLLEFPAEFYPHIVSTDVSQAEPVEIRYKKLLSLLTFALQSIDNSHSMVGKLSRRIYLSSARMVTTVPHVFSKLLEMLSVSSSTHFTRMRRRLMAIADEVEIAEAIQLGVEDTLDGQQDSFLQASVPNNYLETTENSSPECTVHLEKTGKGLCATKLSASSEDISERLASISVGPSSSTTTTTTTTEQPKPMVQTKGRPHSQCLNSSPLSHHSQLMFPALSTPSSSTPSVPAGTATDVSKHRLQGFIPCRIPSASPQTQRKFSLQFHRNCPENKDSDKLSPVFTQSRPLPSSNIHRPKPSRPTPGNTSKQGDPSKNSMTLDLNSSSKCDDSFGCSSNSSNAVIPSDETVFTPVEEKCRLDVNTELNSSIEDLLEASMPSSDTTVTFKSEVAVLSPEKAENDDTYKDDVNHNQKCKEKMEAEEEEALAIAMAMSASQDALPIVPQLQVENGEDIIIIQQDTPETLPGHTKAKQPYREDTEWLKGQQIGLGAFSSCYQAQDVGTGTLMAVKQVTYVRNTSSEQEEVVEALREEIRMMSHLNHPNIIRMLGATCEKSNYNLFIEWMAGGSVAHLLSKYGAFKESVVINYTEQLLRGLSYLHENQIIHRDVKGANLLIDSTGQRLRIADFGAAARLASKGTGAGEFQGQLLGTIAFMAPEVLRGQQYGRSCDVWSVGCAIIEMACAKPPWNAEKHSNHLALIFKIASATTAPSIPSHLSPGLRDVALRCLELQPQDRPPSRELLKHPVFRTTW

[3] = target: Ribosomal protein S6 kinase alpha-4 (Homo sapiens, UniProt O75676)
Ribosomal protein S6 kinase alpha-4, sequence (O75676 whole entry): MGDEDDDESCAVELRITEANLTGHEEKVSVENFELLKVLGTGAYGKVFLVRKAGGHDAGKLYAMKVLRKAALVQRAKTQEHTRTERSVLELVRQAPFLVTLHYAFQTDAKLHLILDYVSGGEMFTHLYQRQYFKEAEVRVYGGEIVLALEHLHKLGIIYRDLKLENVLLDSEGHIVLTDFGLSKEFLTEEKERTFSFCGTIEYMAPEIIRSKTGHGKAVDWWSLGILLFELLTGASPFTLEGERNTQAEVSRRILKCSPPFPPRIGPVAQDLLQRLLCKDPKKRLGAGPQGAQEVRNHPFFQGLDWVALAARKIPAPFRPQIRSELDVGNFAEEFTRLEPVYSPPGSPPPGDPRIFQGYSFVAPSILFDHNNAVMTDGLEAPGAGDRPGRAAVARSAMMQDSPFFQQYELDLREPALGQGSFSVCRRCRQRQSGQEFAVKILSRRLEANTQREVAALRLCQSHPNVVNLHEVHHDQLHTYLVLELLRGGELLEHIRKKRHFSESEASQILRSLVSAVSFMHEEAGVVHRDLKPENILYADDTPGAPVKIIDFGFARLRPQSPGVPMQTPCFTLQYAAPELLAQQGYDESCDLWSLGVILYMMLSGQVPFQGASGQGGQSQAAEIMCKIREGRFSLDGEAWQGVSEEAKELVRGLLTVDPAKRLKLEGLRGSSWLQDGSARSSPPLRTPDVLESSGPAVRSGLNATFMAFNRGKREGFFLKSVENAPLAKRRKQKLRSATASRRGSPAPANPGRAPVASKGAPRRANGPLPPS

[4] = target: Ribosomal protein S6 kinase alpha-1 (Homo sapiens, UniProt Q15418)
Ribosomal protein S6 kinase alpha-1, sequence (Q15418 whole entry): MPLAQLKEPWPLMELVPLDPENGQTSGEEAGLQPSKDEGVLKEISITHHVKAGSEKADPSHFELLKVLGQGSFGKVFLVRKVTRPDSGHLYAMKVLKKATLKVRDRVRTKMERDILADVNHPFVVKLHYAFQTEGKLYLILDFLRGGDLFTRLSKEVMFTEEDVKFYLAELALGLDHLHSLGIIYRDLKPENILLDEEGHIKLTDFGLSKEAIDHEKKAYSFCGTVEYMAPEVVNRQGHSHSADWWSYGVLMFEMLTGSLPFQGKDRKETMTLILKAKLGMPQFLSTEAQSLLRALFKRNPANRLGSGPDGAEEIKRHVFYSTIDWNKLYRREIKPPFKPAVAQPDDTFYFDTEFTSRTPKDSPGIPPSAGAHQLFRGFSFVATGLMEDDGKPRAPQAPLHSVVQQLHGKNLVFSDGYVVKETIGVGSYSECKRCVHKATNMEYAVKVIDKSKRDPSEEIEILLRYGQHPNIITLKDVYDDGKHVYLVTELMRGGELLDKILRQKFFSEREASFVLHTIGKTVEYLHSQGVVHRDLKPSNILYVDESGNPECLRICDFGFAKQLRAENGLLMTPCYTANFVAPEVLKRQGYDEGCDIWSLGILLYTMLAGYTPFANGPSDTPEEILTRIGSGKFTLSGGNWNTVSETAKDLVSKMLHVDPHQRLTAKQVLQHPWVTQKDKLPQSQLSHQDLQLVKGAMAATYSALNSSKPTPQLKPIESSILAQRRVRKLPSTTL

[5] = target: T2, Serine/threonine-protein kinase LATS1 (Homo sapiens, UniProt O95835)
T2 sequence (O95835 whole entry): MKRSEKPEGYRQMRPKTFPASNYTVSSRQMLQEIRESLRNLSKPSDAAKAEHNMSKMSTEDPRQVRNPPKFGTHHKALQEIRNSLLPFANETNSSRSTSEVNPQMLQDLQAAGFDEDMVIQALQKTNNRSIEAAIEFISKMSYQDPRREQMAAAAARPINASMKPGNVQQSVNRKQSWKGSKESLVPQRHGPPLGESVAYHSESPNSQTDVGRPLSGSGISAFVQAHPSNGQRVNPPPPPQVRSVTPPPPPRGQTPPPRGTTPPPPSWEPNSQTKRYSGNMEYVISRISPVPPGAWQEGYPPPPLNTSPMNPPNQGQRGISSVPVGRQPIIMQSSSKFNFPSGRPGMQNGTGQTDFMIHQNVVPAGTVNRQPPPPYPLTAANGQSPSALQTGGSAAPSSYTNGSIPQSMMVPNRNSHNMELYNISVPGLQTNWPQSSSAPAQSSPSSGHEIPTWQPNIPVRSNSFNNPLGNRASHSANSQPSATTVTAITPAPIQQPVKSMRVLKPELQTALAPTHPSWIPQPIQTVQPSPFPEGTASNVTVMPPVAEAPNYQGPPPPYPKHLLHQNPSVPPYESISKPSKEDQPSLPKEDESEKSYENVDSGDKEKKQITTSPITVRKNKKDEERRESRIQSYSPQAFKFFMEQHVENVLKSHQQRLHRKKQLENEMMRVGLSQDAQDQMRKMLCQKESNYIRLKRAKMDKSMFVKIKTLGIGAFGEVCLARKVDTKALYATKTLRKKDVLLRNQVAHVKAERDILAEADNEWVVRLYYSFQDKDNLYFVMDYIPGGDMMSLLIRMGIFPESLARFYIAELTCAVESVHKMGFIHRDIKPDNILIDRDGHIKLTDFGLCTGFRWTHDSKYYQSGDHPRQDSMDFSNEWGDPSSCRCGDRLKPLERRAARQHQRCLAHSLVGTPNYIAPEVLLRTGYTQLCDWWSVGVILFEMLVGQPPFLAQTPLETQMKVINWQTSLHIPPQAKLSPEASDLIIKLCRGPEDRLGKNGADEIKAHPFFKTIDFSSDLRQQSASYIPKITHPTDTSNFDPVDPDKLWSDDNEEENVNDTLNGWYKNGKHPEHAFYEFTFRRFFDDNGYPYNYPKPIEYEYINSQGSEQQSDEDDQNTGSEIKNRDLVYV

[6] = target: T3, DNA replication licensing factor MCM4 (Homo sapiens, UniProt P33991)
T3 sequence (P33991 whole entry): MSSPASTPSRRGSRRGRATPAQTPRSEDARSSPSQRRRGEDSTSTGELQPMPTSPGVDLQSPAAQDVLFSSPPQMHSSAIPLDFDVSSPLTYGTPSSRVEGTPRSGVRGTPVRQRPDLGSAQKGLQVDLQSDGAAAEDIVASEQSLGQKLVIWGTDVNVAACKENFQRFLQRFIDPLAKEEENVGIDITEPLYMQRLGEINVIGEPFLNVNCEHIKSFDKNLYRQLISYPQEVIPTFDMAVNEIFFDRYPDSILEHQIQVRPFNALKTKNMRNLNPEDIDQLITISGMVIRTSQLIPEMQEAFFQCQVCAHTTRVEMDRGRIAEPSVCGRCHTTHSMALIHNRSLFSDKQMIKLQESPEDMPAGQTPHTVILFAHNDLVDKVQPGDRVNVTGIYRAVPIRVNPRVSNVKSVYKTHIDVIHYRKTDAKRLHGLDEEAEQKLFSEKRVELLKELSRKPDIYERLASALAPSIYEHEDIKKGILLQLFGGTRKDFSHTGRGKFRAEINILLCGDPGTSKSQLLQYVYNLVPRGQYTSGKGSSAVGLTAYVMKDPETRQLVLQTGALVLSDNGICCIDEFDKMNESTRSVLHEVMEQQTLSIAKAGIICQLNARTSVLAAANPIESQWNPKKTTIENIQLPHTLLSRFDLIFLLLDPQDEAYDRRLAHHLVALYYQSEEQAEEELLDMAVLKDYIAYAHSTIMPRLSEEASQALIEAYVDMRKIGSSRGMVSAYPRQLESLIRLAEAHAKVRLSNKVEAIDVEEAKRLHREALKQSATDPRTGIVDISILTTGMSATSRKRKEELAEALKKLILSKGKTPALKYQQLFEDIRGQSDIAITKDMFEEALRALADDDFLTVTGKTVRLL

[7] = target: Cyclin-dependent kinase 4 (Homo sapiens, UniProt P11802)
Cyclin-dependent kinase 4, sequence (P11802 whole entry): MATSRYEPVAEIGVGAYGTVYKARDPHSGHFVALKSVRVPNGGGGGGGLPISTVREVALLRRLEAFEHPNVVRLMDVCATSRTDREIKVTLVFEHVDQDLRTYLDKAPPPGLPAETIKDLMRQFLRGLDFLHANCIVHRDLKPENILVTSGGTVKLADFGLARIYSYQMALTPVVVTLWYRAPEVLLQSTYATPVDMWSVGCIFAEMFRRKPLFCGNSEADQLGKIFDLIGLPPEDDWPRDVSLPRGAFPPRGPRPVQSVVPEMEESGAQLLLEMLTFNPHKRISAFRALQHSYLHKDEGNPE

[8] = target: Macrophage-stimulating protein receptor (Homo sapiens, UniProt Q04912)
Macrophage-stimulating protein receptor, sequence (Q04912 25-304 limits assumed): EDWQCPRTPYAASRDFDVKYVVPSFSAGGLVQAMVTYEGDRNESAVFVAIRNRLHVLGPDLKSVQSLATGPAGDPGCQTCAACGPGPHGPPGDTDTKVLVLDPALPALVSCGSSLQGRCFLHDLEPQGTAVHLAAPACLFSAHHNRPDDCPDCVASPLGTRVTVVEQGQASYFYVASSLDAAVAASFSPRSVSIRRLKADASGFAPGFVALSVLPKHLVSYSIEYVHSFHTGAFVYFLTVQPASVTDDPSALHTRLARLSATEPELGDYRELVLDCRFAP
Macrophage-stimulating protein receptor, sequence (Q04912 310-1400 limits assumed): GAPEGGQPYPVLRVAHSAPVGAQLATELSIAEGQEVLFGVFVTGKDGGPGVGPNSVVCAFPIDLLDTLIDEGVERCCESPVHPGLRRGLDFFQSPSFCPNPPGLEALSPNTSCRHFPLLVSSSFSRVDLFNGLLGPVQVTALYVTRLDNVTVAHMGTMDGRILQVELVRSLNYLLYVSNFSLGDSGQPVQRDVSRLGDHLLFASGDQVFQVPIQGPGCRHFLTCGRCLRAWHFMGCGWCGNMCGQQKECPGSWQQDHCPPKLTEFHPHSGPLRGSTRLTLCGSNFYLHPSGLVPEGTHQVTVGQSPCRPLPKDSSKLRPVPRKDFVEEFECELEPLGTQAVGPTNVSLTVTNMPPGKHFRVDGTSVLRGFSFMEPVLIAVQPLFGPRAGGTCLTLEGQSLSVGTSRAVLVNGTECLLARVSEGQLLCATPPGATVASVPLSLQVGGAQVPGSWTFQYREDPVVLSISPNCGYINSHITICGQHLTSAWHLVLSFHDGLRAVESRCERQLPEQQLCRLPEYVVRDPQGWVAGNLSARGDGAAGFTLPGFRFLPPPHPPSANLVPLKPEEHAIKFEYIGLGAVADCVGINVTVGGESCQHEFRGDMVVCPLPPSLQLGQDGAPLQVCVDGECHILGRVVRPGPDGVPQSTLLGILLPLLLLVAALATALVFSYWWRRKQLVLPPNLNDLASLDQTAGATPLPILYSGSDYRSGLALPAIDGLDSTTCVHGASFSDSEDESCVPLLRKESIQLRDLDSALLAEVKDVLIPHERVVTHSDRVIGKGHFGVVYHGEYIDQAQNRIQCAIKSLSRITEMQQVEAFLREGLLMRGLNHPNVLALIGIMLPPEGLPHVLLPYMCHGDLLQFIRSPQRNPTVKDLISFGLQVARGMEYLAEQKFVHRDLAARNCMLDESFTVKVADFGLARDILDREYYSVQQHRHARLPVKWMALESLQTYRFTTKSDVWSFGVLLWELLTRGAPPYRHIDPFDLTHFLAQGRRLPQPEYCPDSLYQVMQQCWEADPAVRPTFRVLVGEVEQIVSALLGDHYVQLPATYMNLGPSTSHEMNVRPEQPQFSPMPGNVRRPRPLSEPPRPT

[9] = target: cAMP-dependent protein kinase catalytic subunit alpha (Homo sapiens, UniProt P17612)

| Compound | Kd [1] | Kd [2] | Kd [3] | Kd [4] | Kd [5] | Kd [6] | Kd [7] | Kd [8] | Kd [9] |
| --- | --- | --- | --- | --- | --- | --- | --- | --- | --- |
| CCc1cnn2c(NCc3ccc[n+]([O-])c3)cc(N3CCCC[C@H]3CCO)nc12 [DINACICLIB] | > 30 µM (inactive) | > 30 µM (inactive) | > 30 µM (inactive) | > 30 µM (inactive) | > 30 µM (inactive) | > 30 µM (inactive) | – | – | – |
| Cn1ncc(Cl)c1-c1cc(C(=O)N[C@H](CN)Cc2cccc(F)c2)sc1Cl [AFURESERTIB] | > 30 µM (inactive) | > 30 µM (inactive) | > 30 µM (inactive) | > 30 µM (inactive) | > 30 µM (inactive) | > 30 µM (inactive) | > 30 µM (inactive) | > 30 µM (inactive) | 0.133 µM (active) |
| CC[C@H](Nc1ncnc2[nH]cnc12)c1nc2cccc(F)c2c(=O)n1-c1ccccc1 [IDELALISIB] | > 30 µM (inactive) | > 30 µM (inactive) | > 30 µM (inactive) | > 30 µM (inactive) | > 30 µM (inactive) | > 30 µM (inactive) | > 30 µM (inactive) | > 30 µM (inactive) | > 30 µM (inactive) |
| O=C(O)[C@]1(Cc2cccc(Nc3nccs3)n2)CC[C@@H](Oc2cccc(Cl)c2F)CC1 [MK-5108] | 0.024 µM (active) | > 30 µM (inactive) | > 30 µM (inactive) | > 30 µM (inactive) | > 30 µM (inactive) | > 30 µM (inactive) | > 30 µM (inactive) | > 30 µM (inactive) | > 30 µM (inactive) |
| CN(C)C(=O)c1cc2cnc(Nc3ccc(N4CCNCC4)cn3)nc2n1C1CCCC1 [RIBOCICLIB] | > 30 µM (inactive) | 12.5 µM (active) | > 30 µM (inactive) | > 30 µM (inactive) | > 30 µM (inactive) | > 30 µM (inactive) | – | > 30 µM (inactive) | > 30 µM (inactive) |
| Cn1cc(-c2ccc3nnc(C(F)(F)c4ccc5ncccc5c4)n3n2)cn1 [JNJ-38877605] | > 30 µM (inactive) | > 30 µM (inactive) | > 30 µM (inactive) | > 30 µM (inactive) | > 30 µM (inactive) | – | > 30 µM (inactive) | > 30 µM (inactive) | > 30 µM (inactive) |
| COc1cc2nccc(Oc3ccc(NC(=O)NC4CC4)c(Cl)c3)c2cc1C(N)=O [LENVATINIB] | > 30 µM (inactive) | > 30 µM (inactive) | > 30 µM (inactive) | – | > 30 µM (inactive) | > 30 µM (inactive) | > 30 µM (inactive) | > 30 µM (inactive) | > 30 µM (inactive) |
| OCCn1cc(-c2cnc3nnn(Cc4ccc5ncccc5c4)c3n2)cn1 [PF-04217903] | > 30 µM (inactive) | > 30 µM (inactive) | > 30 µM (inactive) | > 30 µM (inactive) | > 30 µM (inactive) | > 30 µM (inactive) | > 30 µM (inactive) | – | – |
| CN1CCN(c2ccc3nc(-c4c(N)c5c(F)cccc5[nH]c4=O)[nH]c3c2)CC1 [DOVITINIB] | – | – | – | – | – | > 30 µM (inactive) | – | – | – |
| Cc1cc(Nc2cc(N3CCN(C)CC3)nc(/C=C/c3ccccc3)n2)n[nH]1 [ENMD-2076] | > 30 µM (inactive) | > 30 µM (inactive) | > 30 µM (inactive) | > 30 µM (inactive) | > 30 µM (inactive) | > 30 µM (inactive) | > 30 µM (inactive) | – | – |
| Cn1cc(-c2ccc(F)c(C(F)(F)F)c2)nc1C1CCN(c2ncnc3[nH]ncc23)CC1 [LY-2584702] | > 30 µM (inactive) | > 30 µM (inactive) | > 30 µM (inactive) | > 30 µM (inactive) | > 30 µM (inactive) | – | > 30 µM (inactive) | > 30 µM (inactive) | > 30 µM (inactive) |
| COc1cc(OC)c(/C=C/S(=O)(=O)Cc2ccc(OC)c(NCC(=O)O)c2)c(OC)c1 [RIGOSERTIB] | > 30 µM (inactive) | > 30 µM (inactive) | > 30 µM (inactive) | > 30 µM (inactive) | > 30 µM (inactive) | – | > 30 µM (inactive) | > 30 µM (inactive) | > 30 µM (inactive) |
| CCn1c(-c2nonc2N)nc2c(C#CC(C)(C)O)ncc(OC[C@H]3CCCNC3)c21 [GSK-690693] | – | – | – | – | – | > 30 µM (inactive) | – | – | – |
| O=C(Nc1cccc(Cl)c1)Nc1ncc(CCNc2ncnc3ccsc23)s1 [SNS-314] | > 30 µM (inactive) | – | > 30 µM (inactive) | > 30 µM (inactive) | > 30 µM (inactive) | > 30 µM (inactive) | > 30 µM (inactive) | – | – |
| C1=C/COCc2cc(ccc2OCCN2CCCC2)Nc2nccc(n2)-c2cccc(c2)COC/1 [PACRITINIB] | 0.035 µM (active) | > 30 µM (inactive) | > 30 µM (inactive) | > 30 µM (inactive) | > 30 µM (inactive) | – | > 30 µM (inactive) | > 30 µM (inactive) | > 30 µM (inactive) |
| Cc1cn(-c2cc(NC(=O)c3ccc(C)c(Nc4nccc(-c5cccnc5)n4)c3)cc(C(F)(F)F)c2)cn1 [NILOTINIB] | – | – | – | – | – | > 30 µM (inactive) | – | – | – |
| Nc1nc(N)c2nc(-c3cccc(O)c3)c(-c3cccc(O)c3)nc2n1 [TG100-115] | – | – | – | – | – | > 30 µM (inactive) | – | – | – |
| Cc1cc([C@@H](C)Nc2ccccc2C(=O)O)c2nc(N3CCOCC3)cc(=O)n2c1 [AZD-6482] | > 30 µM (inactive) | > 30 µM (inactive) | > 30 µM (inactive) | > 30 µM (inactive) | > 30 µM (inactive) | > 30 µM (inactive) | – | > 30 µM (inactive) | > 30 µM (inactive) |
| Cc1nc(N)sc1-c1ccnc(Nc2ccc(N3CCOCC3)cc2)n1 [CYC-116] | 0.057 µM (active) | 8.16 µM (active) | – | > 30 µM (inactive) | 0.066 µM (active) | > 30 µM (inactive) | – | 0.575 µM (active) | – |
